Patent US20050220718A1, “Stable pharmaceutical solution formulations for pressurized metered dose inhalers” (Chiesi Farmaceutici S.p.A., priority 2004, published 2005)

Experiments:
[1] = Stability of TA 2005 + budesonide HFA 134a compositions with phosphoric acid, 40° C. and 75% relative humidity; format: physicochemical; conditions: TA 2005 1 μg + budesonide 200 μg/actuation, phosphoric acid 85% 0.0032 or 0.0064% w/w, 0.15% w/w water
Experimental: The two compositions containing TA 2005 and budesonide as active ingredients and two different concentrations of phosphoric acid as shown in Table 4 were prepared.
Volume of the valve: 63 μl; strength: TA 2005 1 μg+budesonide 200 μg/actuation; no. of actuations: 120 (34 overfilling doses).
The two active ingredients in the compositions were stable after three months storage at 40° C. and 75% relative humidity, giving residual percent amounts of at least 95% TA 2005 and about 100% of Budesonide.

[2] = Apparent pH (acidity function pH') of acidified TA 2005 solutions; format: physicochemical; conditions: TA 2005 3.5 μg/50 μl in HFA 134a
From the text: The attribution ‘apparent’ is used as pH is indeed characteristic of aqueous liquids where water is the dominant component (Mole Fraction >0.95). […] Although the Nernst equation with respect to EMF applies and the pH-meter glass electrode system will generate a variable milli-volt output according to proton concentration and vehicle polarity, the “pH” meter reading is not a true pH value. The meter reading represents an apparent pH or acidity function (pH′).
Rather concentrated, i.e., more than about 10 M, preferably more than about 12 M, and most preferably about 15 M phosphoric acid is used to adjust the apparent pH. In the examples that follow 85%, i.e., 15.2M phosphoric acid has been used. The amount of acid to be added to reach the desired apparent pH will be pre-determined in the model vehicle reported before
1.0 M hydrochloric acid was added incrementally to 50 ml of HFA 43-10MEE (Vertrel XF) containing 20% w/w ethanol and the pH′ was measured after each aliquot of acid.
(§1) A solution of TA 2005 (3.5 μg/50 μl) was prepared by dissolving 0.84 mg of the active ingredient in HFA 134a containing 12% w/w ethanol and 1.0% w/w of isopropyl myristate. pMDI coated cans containing 1.0, 1.4, and 1.8 μl of 0.08 M hydrochloric acid (corresponding respectively to an apparent pH of about 4.8, 3.2, and 2.9) were set down on storage, upright at 50° C., and samples taken for analysis of TA 2005 contents at appropriate intervals.

[3] = 4 μg per actuation, HCl stabilized, stored upright at 5° C., after nine months (WO 03/074025); cited from earlier work
[4] = Stability study of TA 2005 HFA 134a formulation with 15.2M phosphoric acid, upright and inverted cans at 40° C. and 75% relative humidity; format: physicochemical; conditions: TA 2005 1 μg/63 μl, 15% w/w ethanol, phosphoric acid 15.2M 0.001 to 0.0027% w/w
Experimental: The formulation of Table 3 (120 actuations canister, overage of 30 actuations) was filled in aluminum canisters having the internal surface coated with teflon and fitted with commercial valves having a 63 μl metering chamber. A stability study was carried out by storing the formulation in upright and inverted cans at 40° C. and 75% relative humidity.

[5] = Stability of acidified TA 2005-HFA 134a solutions in cans coated with a fluorocarbon polymer, stored upright at 50° C.; format: physicochemical
Experimental: Comparative Example 1 (corresponding to Example 7 of WO 01/89480). Stability of acidified TA 2005-HFA 134a solutions in cans coated with a fluorocarbon polymer.
as §1
Each value is expressed as percent nominal drug concentration.

[6] = Stability study of TA 2005 HFA 134a formulations with 0.1M hydrochloric acid, upright cans at 40° C. and 75% relative humidity; format: physicochemical; conditions: TA 2005 1 μg/63 μl, 15% w/w ethanol
Experimental: Two aluminum canisters having the internal surface coated with teflon and fitted with commercial valves having a 63 μl metering chamber were filled with the following formulations shown in Table 2. A stability study was carried out by storing the formulations in upright cans at 40° C. and 75% relative humidity.

[7] = HFA propellant and ethanol, conventional aluminum or plastic coated glass cans; 40° C., 75% relative humidity, one month (WO 99/65460); cited from earlier work

Compound | residual percent amount after three months storage [1] | apparent pH ([2]; 1.0 μl of 0.08 M hydrochloric acid per can) | apparent pH ([2]; 1.4 μl of 0.08 M hydrochloric acid per can) | apparent pH ([2]; 1.8 μl of 0.08 M hydrochloric acid per can) | TA 2005 assay [3] | residual percent amount of TA 2005 after three months of storage [4] | TA 2005 content, percent nominal drug concentration, 50° C.; 22 days upright ([5]; 1.0 μl 0.08M HCl per can) | TA 2005 content, percent nominal drug concentration, 50° C.; 83 days upright ([5]; 1.0 μl 0.08M HCl per can) | TA 2005 content, percent nominal drug concentration, Initial ([5]; 1.0 μl 0.08M HCl per can, TA 2005 3.5 μg/50 μl, 12% w/w ethanol, 1.0% w/w isopropyl myristate) | TA 2005 content, percent nominal drug concentration, 50° C.; 22 days upright ([5]; 1.4 μl 0.08M HCl per can) | TA 2005 content, percent nominal drug concentration, 50° C.; 83 days upright ([5]; 1.4 μl 0.08M HCl per can) | TA 2005 content, percent nominal drug concentration, Initial ([5]; 1.4 μl 0.08M HCl per can) | TA 2005 content, percent nominal drug concentration, 50° C.; 22 days upright ([5]; 1.8 μl 0.08M HCl per can) | TA 2005 content, percent nominal drug concentration, 50° C.; 83 days upright ([5]; 1.8 μl 0.08M HCl per can) | TA 2005 content, percent nominal drug concentration, Initial ([5]; 1.8 μl 0.08M HCl per can) | percent amount of TA 2005 after three months of storage ([6]; 0.1M HCl 0.018% w/w) | percent amount of TA 2005 after three months of storage ([6]; 0.1M HCl 0.027% w/w) | loss of drug [7]
COc1ccc(C[C@@H](C)NC[C@H](O)c2ccc(O)c3[nH]c(=O)ccc23)cc1.Cl [TA 2005, 8-hydroxy-5-[(1R)-1-hydroxy-2-[[(1R)-2-(4-methoxyphenyl)-1-methylethyl]amino]ethyl]-2(1H)-quinolinone hydrochloride] | at least 95% | about 4.8 | ~3.2 | ~2.9 | higher than 95% | up to 98% | 98.3% | 99.4% | 100.0% | 98.2% | 98.8% | 100.0% | 90.2% | 88.1% | 100.0% | 73% | 77% | 
COc1ccc(C[C@@H](C)NC[C@H](O)c2ccc(O)c(NC=O)c2)cc1.COc1ccc(C[C@@H](C)NC[C@H](O)c2ccc(O)c(NC=O)c2)cc1.O=C(O)/C=C/C(=O)O [formoterol fumarate] |  |  |  |  |  |  |  |  |  |  |  |  |  |  |  |  |  | about 10%
